From patent publication US12054498B2, “Heteroaromatic macrocyclic ether chemotherapeutic agents” (Nuvalent, Inc., priority 2020, dated 2024)

Key:
Assay type in all cases: cell-based
[1] = target: T1, Ba/F3 cells CD74-ROS1 wild-type (wt) (Homo sapiens, UniProt P08922); experiment: Ba/F3 cell proliferation assay, CD74-ROS1 wild-type; conditions: 72 hours, CellTiter-Glo
T1 construct: fusion of the C-terminus of ROS1 with the N-terminus of various partner proteins; host or cells: Ba/F3 (RIKEN), retroviral pMSCV-puro; the other entry of the earlier key: CD74 (P04233, HLA class II histocompatibility antigen gamma chain)
Method: (§1) The virus was used to infect Ba/F3 cells (RIKEN) at multiplicity of infection=1 for 1 day. Infected cells were rescued in media (RPMI-1640 with 10% fetal bovine serum and 1% streptomycin and penicillin) supplemented with mouse IL-3 (10 ng/mL) for 2 days, and stable cell lines were selected by IL-3 withdrawal and puromycin (0.8 μg/mL) for 7 days. Monoclones were selected by single-cell dilution in IL-3-free medium containing puromycin (0.8 μg/mL).
(§2) Cell Proliferation Assay Stable cells were plated at 1,000 cells/well (40 μL) in a 384-well plate for 1 day.
(§3) Test compounds (40 nL) were then added in a 3-fold dilution series using the TECAN EVO200 liquid handler and incubated for 72 hours. Plates were equilibrated at room temperature for 15 minutes followed by addition of 40 μL CellTiter-Glo reagent (Promega).
(§4) Luminescence was measured on a plate reader. Half-maximal inhibitory concentration (IC50) was calculated from percent inhibition and inhibitor concentration using four-parameter logistic regression. […] (nd=not determined).

[2] = target: T2, Ba/F3 cells CD74-ROS1 G2032R (Homo sapiens, UniProt P08922, G2032R); experiment: Ba/F3 cell proliferation assay, CD74-ROS1 G2032R; conditions: 72 hours, CellTiter-Glo
T2 construct: fusion of the C-terminus of ROS1 with the N-terminus of various partner proteins; host or cells: Ba/F3 (RIKEN), retroviral pMSCV-puro; the other entry of the earlier key: CD74 (P04233, HLA class II histocompatibility antigen gamma chain)
Method: as §1, §2, §3, §4

[3] = target: T3, Ba/F3 cells EML4-ALK wt (variant 1) (Homo sapiens, UniProt Q9UM73); experiment: Ba/F3 cell proliferation assay, EML4-ALK wt (variant 1); conditions: 72 hours, CellTiter-Glo
T3 construct: echinoderm microtubule-associated protein-like 4 (EML4) gene and the ALK tyrosine kinase domain; host or cells: Ba/F3 (RIKEN), retroviral pMSCV-puro; the other entry of the earlier key: EML4 (Q9HC35, Echinoderm microtubule-associated protein-like 4)
From the text: (§5) Genes encoding CD74-ROS1 wild-type (wt), CD74-ROS1 G2032R, CD74-ROS1 S1986F, CD74-ROS1 L2026M, CD74-ROS1 D2033N, EML4-ALK wt (variant 1), EML4-ALK G1202R (variant 1), EML4-ALK L1196M/G1202R (variant 1), EML4-ALK G1202R/G1269A (variant 1), EML4-ALK G1202R/L1198F (variant 1), and TPM3-TRKA were synthesized at GeneRay, cloned into the retroviral construct pMSCV-puro (Biovector), and packaged into retroviral particles. The virus was used to infect Ba/F3 cells (RIKEN) at multiplicity of infection=1 for 1 day. Infected cells were rescued in media (RPMI-1640 with 10% fetal bovine serum and 1% streptomycin and penicillin) supplemented with mouse IL-3 (10 ng/mL) for 2 days, and stable cell lines were selected by IL-3 withdrawal and puromycin (0.8 μg/mL) for 7 days. Monoclones were selected by single-cell dilution in IL-3-free medium containing puromycin (0.8 μg/mL). Transformation of desired genes was confirmed by Sanger sequencing and western blot using the following antibodies: ROS1 (CST #3287), ALK (CST #3633), and pan-TRK (Abcam #76291).
as §2, §3, §4

[4] = target: T4, Ba/F3 cells EML4-ALK L1196M/G1202R (variant 1) (Homo sapiens, UniProt Q9UM73, G1202R/L1196M); experiment: Ba/F3 cell proliferation assay, EML4-ALK L1196M/G1202R (variant 1); conditions: 72 hours, CellTiter-Glo
T4 construct: echinoderm microtubule-associated protein-like 4 (EML4) gene and the ALK tyrosine kinase domain; host or cells: Ba/F3 (RIKEN), retroviral pMSCV-puro; the other entry of the earlier key: EML4 (Q9HC35, Echinoderm microtubule-associated protein-like 4)
From the text: as §5, §2, §3, §4

Ba/F3 cells TPM3-TRKA = target: T5, Ba/F3 cells TPM3-TRKA (Homo sapiens, UniProt P04629); experiment: Ba/F3 cell proliferation assay, TPM3-TRKA; conditions: 72 hours, CellTiter-Glo, read-out: TPM3-NTRK1-wt IC50
T5 construct: host or cells: Ba/F3 (RIKEN), retroviral pMSCV-puro; the other entry of the earlier key: TPM3 (P06753, Tropomyosin alpha-3 chain)
From the text: as §5, §2, §3, §4

[5] = tested on: TPM3-NTRK1-wt IC50 / primary target IC50 (e.g. CD74-ROS1-wt); experiment: TRKA selectivity in Ba/F3 cells (TRKA potency divided by primary target potency); conditions: for TPM3-NTRK1-wt/CD74-ROS1-G2032R selectivity ratio: TRKA potency / CD74-ROS1-G2032R potency; for TPM3-NTRK1-wt/CD74-ROS1-wt selectivity ratio: TRKA potency / CD74-ROS1-wt potency; for TPM3-NTRK1-wt/EML4-ALK-L1196M-G1202R selectivity ratio: TRKA potency / EML4-ALK-L1196M-G1202R potency; for TPM3-NTRK1-wt/EML4-ALK-wt selectivity ratio: TRKA potency / EML4-ALK-wt potency
Method: TRKA selectivity was calculated by dividing a compound's TRKA potency by its primary target potency (e.g. TPM3-NTRK1-wt IC50/CD74-ROS1-wt IC50). Compound selectivity can be interpreted by binning ratio values: bin A for very high selectivity, ratio >30-fold; bin B for high selectivity, ratio >10-fold; bin C for moderate selectivity, ratio ≥1; and bin D for low selectivity, ratio <1. […] (nd=not determined).

T3 sequence (Q9UM73 with tags, fused parts or gaps): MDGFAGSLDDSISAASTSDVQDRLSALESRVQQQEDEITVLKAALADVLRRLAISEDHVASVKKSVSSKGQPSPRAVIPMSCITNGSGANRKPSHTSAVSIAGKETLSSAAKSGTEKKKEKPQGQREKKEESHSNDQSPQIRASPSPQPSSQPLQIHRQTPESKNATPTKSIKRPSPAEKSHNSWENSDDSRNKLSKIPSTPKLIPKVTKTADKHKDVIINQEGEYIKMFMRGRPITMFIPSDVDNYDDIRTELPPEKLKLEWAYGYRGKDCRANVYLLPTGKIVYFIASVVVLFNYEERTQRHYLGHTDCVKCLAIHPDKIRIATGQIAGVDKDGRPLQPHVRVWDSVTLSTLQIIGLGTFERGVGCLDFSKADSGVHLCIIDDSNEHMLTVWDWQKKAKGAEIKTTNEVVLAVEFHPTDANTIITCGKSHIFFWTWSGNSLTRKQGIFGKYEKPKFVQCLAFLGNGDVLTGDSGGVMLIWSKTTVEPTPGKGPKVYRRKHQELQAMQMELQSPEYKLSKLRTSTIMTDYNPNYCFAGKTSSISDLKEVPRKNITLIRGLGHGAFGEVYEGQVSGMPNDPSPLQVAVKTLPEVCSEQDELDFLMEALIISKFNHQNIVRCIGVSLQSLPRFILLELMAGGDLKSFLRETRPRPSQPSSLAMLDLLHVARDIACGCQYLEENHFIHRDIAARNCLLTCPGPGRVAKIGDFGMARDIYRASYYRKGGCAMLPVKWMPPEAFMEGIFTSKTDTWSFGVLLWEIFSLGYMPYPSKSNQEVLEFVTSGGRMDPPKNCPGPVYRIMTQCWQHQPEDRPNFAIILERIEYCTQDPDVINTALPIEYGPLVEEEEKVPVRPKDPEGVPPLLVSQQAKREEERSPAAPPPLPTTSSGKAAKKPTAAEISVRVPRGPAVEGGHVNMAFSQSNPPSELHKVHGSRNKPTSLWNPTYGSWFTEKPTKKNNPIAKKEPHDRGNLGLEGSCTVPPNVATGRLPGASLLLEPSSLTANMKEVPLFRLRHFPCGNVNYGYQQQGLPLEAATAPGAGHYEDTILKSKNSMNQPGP
T2 sequence (P08922 1883-2347 G2032R limits assumed): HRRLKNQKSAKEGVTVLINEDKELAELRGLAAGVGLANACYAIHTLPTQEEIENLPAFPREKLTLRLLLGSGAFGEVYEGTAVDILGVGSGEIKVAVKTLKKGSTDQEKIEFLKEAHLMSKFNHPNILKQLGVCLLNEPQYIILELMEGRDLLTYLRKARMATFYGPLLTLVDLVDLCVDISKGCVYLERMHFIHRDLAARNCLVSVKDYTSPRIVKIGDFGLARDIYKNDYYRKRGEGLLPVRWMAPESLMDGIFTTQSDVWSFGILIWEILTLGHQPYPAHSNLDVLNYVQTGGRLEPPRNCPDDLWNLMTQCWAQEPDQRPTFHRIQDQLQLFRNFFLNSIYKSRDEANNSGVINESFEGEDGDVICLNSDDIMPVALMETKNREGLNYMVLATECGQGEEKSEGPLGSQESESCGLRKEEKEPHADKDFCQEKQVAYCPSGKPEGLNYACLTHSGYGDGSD
T1 sequence (P08922 1883-2347 limits assumed): as the sequence (P08922 1883-2347 G2032R limits assumed) above, with R150G counted along it
T4 sequence (Q9UM73 with tags, fused parts or gaps L1196M/G1202R): as the sequence (Q9UM73 with tags, fused parts or gaps) above, with L635M, G641R counted along it
T5 sequence (P04629 510-796 limits assumed): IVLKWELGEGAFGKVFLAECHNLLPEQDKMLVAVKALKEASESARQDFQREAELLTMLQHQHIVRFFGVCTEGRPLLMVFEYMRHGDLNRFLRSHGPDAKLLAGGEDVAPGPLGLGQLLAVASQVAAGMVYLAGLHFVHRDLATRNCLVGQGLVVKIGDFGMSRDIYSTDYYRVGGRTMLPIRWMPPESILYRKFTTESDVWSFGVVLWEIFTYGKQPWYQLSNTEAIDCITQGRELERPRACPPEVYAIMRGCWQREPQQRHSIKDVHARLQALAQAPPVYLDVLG

Compound	IC50 [1]	IC50 [2]	IC50 [3]	IC50 [4]	IC50 (Ba/F3 cells TPM3-TRKA)	TPM3-NTRK1-wt/CD74-ROS1-G2032R selectivity ratio [5]	TPM3-NTRK1-wt/CD74-ROS1-wt selectivity ratio [5]	TPM3-NTRK1-wt/EML4-ALK-L1196M-G1202R selectivity ratio [5]	TPM3-NTRK1-wt/EML4-ALK-wt selectivity ratio [5]
CCn1nc(Cl)c2c1-c1cnc(N)c(c1)O[C@H](C)c1cc(F)ccc1-c1ncnn1C2 [Example 43, (19R)-5-chloro-3-ethyl-16-fluoro-19-methyl-20-oxa-3,4,8,9,11,23-hexaazapentacyclo[19.3.1.0^2,^6.0^8,^12.0^13,^18]pentacosa-1(24),2,(6),4,9,11,13,15,17,21(25),22-decaen-22-amine]	0.1 to 50 nM	0.1 to 50 nM	50 to 500 nM	50 to 500 nM	> 500 nM	A (bin A for very high selectivity, ratio >30-fold)	A (bin A for very high selectivity, ratio >30-fold)	C (bin C for moderate selectivity, ratio ≥1)	B (bin B for high selectivity, ratio >10-fold)
C[C@H]1Oc2cc(cnc2N)-c2c(CC3CC3)noc2Cn2ncnc2-c2ccc(F)cc21 [Example 67, (19R)-3-(cyclopropylmethyl)-16-fluoro-19-methyl-5,20-dioxa-4,8,9,11,23-pentaazapentacyclo[19.3.1.0^2,^6.0^8,^12.0^13,^18]pentacosa-1(24),2(6),3,9,11,13,15,17,21(25),22-decaen-22-amine]	0.1 to 50 nM	0.1 to 50 nM	0.1 to 50 nM	50 to 500 nM	> 500 nM	A (bin A for very high selectivity, ratio >30-fold)	A (bin A for very high selectivity, ratio >30-fold)	C (bin C for moderate selectivity, ratio ≥1)	A (bin A for very high selectivity, ratio >30-fold)
Cc1nc2c(o1)-c1ccc(F)cc1[C@@H](C)Oc1cc(cnc1N)-c1c(c(C)nn1CC1CC1)C2 [Example 78, (19R)-3-(cyclopropylmethyl)-16-fluoro-5,10,19-trimethyl-11,20-dioxa-3 ,4,9,23-tetraazapentacyclo[19.3.1.0^2,^6.0^8,^12.0^13,^18]pentacosa-1(24),2(6),4,8(12),9,13,15,17,21(25),22-decaen-22-amine]	0.1 to 50 nM	0.1 to 50 nM	0.1 to 50 nM	50 to 500 nM	> 500 nM	A (bin A for very high selectivity, ratio >30-fold)	A (bin A for very high selectivity, ratio >30-fold)	A (bin A for very high selectivity, ratio >30-fold)	A (bin A for very high selectivity, ratio >30-fold)
Cc1nn(CC2CC2)c2c1Cn1nc(Cl)cc1-c1ccc(F)cc1[C@@H](C)Oc1cc-2cnc1N [Example 81, (19R)-10-chloro-3-(cyclopropylmethyl)-16-fluoro-5,19-dimethyl-20-oxa-3,4,8,9,23-pentaazapentacyclo[19.3.1.0^2,^6.0^8,^12.0^13,^18]pentacosa-1(24),2(6),4,9,ll,13,15,17,21(25),22-decaen-22-amine]	0.1 to 50 nM	0.1 to 50 nM	50 to 500 nM	> 500 nM	> 500 nM	A (bin A for very high selectivity, ratio >30-fold)	A (bin A for very high selectivity, ratio >30-fold)	C (bin C for moderate selectivity, ratio ≥1)	A (bin A for very high selectivity, ratio >30-fold)
C[C@H]1Oc2cc(cnc2N)-c2c(cnn2CC2CC2)Cc2nn(C(F)F)nc2-c2ccc(F)cc21 [Example 91, (19R)-3-(cyclopropylmethyl)-10-(difluoromethyl)-16-fluoro-19-methyl-20-oxa-3,4,9,10,11,23-hexaazapentacyclo[19,3.1.0^2,^6.0^8,^12.0^13,^18]pentacosa-1(24),2(6),4,8,11,13,15,17,21(25),22-decaen-22-amine]	0.1 to 50 nM	0.1 to 50 nM	0.1 to 50 nM	0.1 to 50 nM	50 to 500 nM	A (bin A for very high selectivity, ratio >30-fold)	A (bin A for very high selectivity, ratio >30-fold)	B (bin B for high selectivity, ratio >10-fold)	A (bin A for very high selectivity, ratio >30-fold)
Cc1nc2c(o1)-c1ccc(F)cc1C(C)Oc1cc(cnc1N)-c1c(c(Cl)nn1CC1CC1)C2 (stereo not drawn) [Example 93]	0.1 to 50 nM	0.1 to 50 nM	50 to 500 nM	50 to 500 nM	> 500 nM	A (bin A for very high selectivity, ratio >30-fold)	A (bin A for very high selectivity, ratio >30-fold)	B (bin B for high selectivity, ratio >10-fold)	A (bin A for very high selectivity, ratio >30-fold)
CCn1ncc2c1-c1cnc(N)c(c1)O[C@H](C)c1cc(F)ccc1-c1cc(Br)nn1C2 [Example 94, (19R)-10-bromo-3-ethyl-16-fluoro-19-methyl-20-oxa-3,4,8,9,23-pentaazapentacyclo[19.3.1.0^2,^6.0^8,^12.0^13,^18]pentacosa-1(24),2(6),4,9,11,13,15,17,21(25),22-decaen-22-amine]	0.1 to 50 nM	0.1 to 50 nM	0.1 to 50 nM	50 to 500 nM	50 to 500 nM	A (bin A for very high selectivity, ratio >30-fold)	A (bin A for very high selectivity, ratio >30-fold)	C (bin C for moderate selectivity, ratio ≥1)	B (bin B for high selectivity, ratio >10-fold)
